Experimental data as given in ChEMBL document CHEMBL1128077, “6,3'-Dinitroflavone, a novel high affinity ligand for the benzodiazepine receptor with potent anxiolytic properties” (Bioorg Med Chem Lett, 1995).

Target: GABA-A receptor; anion channel
Assay: Inhibition of [3H]flunitrazepam binding to GABA-A central benzodiazepine receptor of bovine cerebral cortical membranes
Parameters: species or system Bos taurus

| SMILES | Ki |
| --- | --- |
| O=c1cc(-c2cccc([N+](=O)[O-])c2)oc2ccc([N+](=O)[O-])cc12 | 0.012 µM |
| O=c1cc(-c2ccc([N+](=O)[O-])cc2)oc2ccc([N+](=O)[O-])cc12 | 17 µM |
